Reference: US4401827A, “Novel acyl-derivatives of carnitine and process for their preparation” (Sigma-Tau, priority 1978, dated 1983)
Like-named read-outs stand apart in the source and are kept apart here.

Legend:
[1] = acute toxicity (tolerance) i.p. in mice, Weil method; details: mouse, in vivo, ip, Weil method (N = 5, K = 4)
Description: The tolerance of the Acyl-carnitines of the formula (I), as well as their salts administered by intraperitoneal route was investigated in mice using the Weil Method (1).
LD50, mg kg^-1 i.p. in mice,
of some acyl derivatives of formula (1).
Weil method (N = 5, K = 4)

rat's ventricle strip = assay: antiarrhythmic effect, isolated rat ventricle strip test; details: for inhibition at 1 µM / activation at 1 µM: Rattus norvegicus, concentration 1·10^-6 M; for inhibition at 1 µM: decrease; for activation at 1 µM: increase
Description: (2) M. Libonati and G. Segre, Archivio Italiano di Scienze Farmacologiche. Serie XIII, Vol. X, pag. 3, (1960)
effect of some acyl derivatives (concentration 1 · 10^-6
of the formula (1) on the rat's ventricle strip test.
% variation versus basal value.

[2] = tested on: arrhythmia induced by Aconitine in mice; assay: arrhythmia induced by Aconitine in mice; type: in vivo; details: for change in vivo at 300 mg/kg / change in vivo at 40 mg/kg / change in vivo at 150 mg/kg / change in vivo at 75 mg/kg / change in vivo at 89 mg/kg: Mus musculus, iv; for antiarrhythmic activity (in words): Aconitine, mice
Procedure: The antiarrhythmic effect of the compounds was also investigated in mice according to the P. W. Nwangwu, T. Holcslow procedure (4). Using Aconitine (5 mg/ml) as arrhythmogenic agent, the changes in the cardiac rhythm of the animals were recorded and the onset time of initial arrhythmia and/or of ventricular tachycardia were used as End point.
Antiarrhythmic agents display an increase in the latency time of initial ECG change.
(4) P. W. Nvangvu, T. L. Holcslow, Arch. Int. Pharmacodyn. 229, 219 (1977)
on the arrhythmia induced by Aconitine (5 γ/ml) in mice.
% increase of the time to onset of initial cardiac arrythmia

[3] = tested on: plasma cholesterol, triglycerides and lipoproteins in rat; assay: plasma cholesterol, triglycerides and lipoproteins in rat treated with olive oil; type: in vivo; details: for lipoproteic pattern altered due to oil administration (in words): rats, single treatment
Procedure: In the rats the lipoproteic pattern altered due to an oil administration by gavage, was restored after a single treatment with d,l dipropyl ACAR; d,l ethyl exanoyl CAR; d,l 3 bromopropionyl CAR and d,l pyruvyl CAR.
The effect of some acyl derivatives of formula (I) on plasma cholesterol,
triglycerides and lipoproteins in rat
treated with olive oil, 15 ml kg^-1 orally. Mean Values ± SEM
Student "t" test .quadrature., Δ and indicate respectively a non
significant difference, a P ≤ 1% and 1%.

rabbit hearts = assay: cardiokinetic effect on isolated rabbit heart (Langendorff) after anoxia; details: equal concentrations in perfusion fluid, Student's t test versus controls
Procedure: The cardiokinetic effect on isolated heart was also investigated as follows. Rabbit hearts isolated by the Langendorff method were perfused with oxygenized ringer solution at 38.2° C. The isometric contractions, electrocardiogram and coronary flow were recorded using a "Battaglia-Rangoni" polygraph. By removing the oxygen from the perfusion fluid, metabolic damage was induced in the cardiac muscle, up to an 80% reduction in the cardiac contractile force.
Under these conditions of prolonged anoxia the aerobic glycolysis of the myocardium is slowed down, accompanied by the storage of acid catabolites due to both the accumulation of pyruvic acid and its conversion to lactic acid which cannot be utilized because of the depression of pyridine enzymes, such as LDH (lactodehydrogenase). This has repercussions on the anaerobic glycolysis affecting an ever increasing number of enzymes, accompanied by a progressive and increasingly critical exhaustion of the myocardium. Thus a whole series of cardiac muscle fatigue levels occurs which can be observed by the behavior of the examined parameters, namely the contractile force, coronary flow, heart rate and cardiac rhythm. As soon as the contractile force was reduced by 80%, the perfusion fluid was once again oxygenized either without adding other compounds (controls) or with the addition of the compounds under examination.
Table 2 below gives the percentage values of the contractile force of the heart, showing a positive inotropic effect, calculated after 10 minutes from the interruption of the anoxic period (myocardial restoration).
of some acyl derivatives of formula (I) on the contractile
force of rabbit's heart. (Details are given in the text)

[4] = read-out: maximed frequency (- %), % variation versus basal value
[5] = read-out: whole excitability (- %), % variation versus basal value
[6] = read-out: refractory period (+ %), % variation versus basal value
[7] = read-out: rheobase (+ %), % variation versus basal value
[8] = read-out: latency time increase % of controls, arrhythmias
[9] = read-out: latency time increase % of controls, tachycardia

SMILES	LD50 [1] [mg/kg]	inhibition at 1 µM (rat's ventricle strip; [4]) [%]	inhibition at 1 µM (rat's ventricle strip; [5]) [%]	activation at 1 µM (rat's ventricle strip; [6]) [%]	activation at 1 µM (rat's ventricle strip; [7]) [%]	change in vivo at 300 mg/kg [2, 8] [%]	change in vivo at 300 mg/kg [2, 9] [%]	change in vivo at 150 mg/kg [2, 8] [%]	change in vivo at 150 mg/kg [2, 9] [%]	other results
CC(C)Cc1ccc(CC(=O)OC(CC(=O)[O-])C[N+](C)(C)C)cc1 (racemic) [d,l p-isobutyl phenyl ACAR]	378	38.2	35.2	22.5	22.2	20	10	–	–	–
C[N+](C)(C)CC(CC(=O)[O-])OC(=O)CCCCl (racemic) [d,l 4-Cl--butyryl CAR]	850	60.2	55.1	38.3	35.2	20	10	–	–	antiarrhythmic properties (in words) (rat's ventricle strip; isolated rat ventricle method): most clear out antiarrhythmic properties
C[N+](C)(C)CC(CC(=O)[O-])OC(=O)C=Cc1cccc(C(F)(F)F)c1 (racemic) [d,l trifluoromethylcinnamoyl CAR]	845	41.3	24.3	25.7	19.5	–	–	–	–	change in vivo at 40 mg/kg [2, 8]: 50%; change in vivo at 40 mg/kg [2, 9]: 30%
CCCCC(CC)C(=O)OC(CC(=O)[O-])C[N+](C)(C)C (racemic) [d,l 2-ethylhexanoyl CAR]	950	25.5	40.3	22.8	21.8	20	10	–	–	lipoproteic pattern altered due to oil administration (in words) [3]: restored
C[N+](C)(C)CC(CC(=O)[O-])OC(=O)CCBr (centres unmarked) [bromopropionyl]	–	–	–	–	–	–	–	–	–	positive inotropic effect (in words) (rabbit hearts): greater positive inotropic effect than that of the other compounds under examination
C[N+](C)(C)CC(CC(=O)[O-])OC(=O)CCBr (racemic) [d,l 3-Br--propionyl CAR]	950	17.3	39.7	40.2	26.1	–	–	20	10	Lipoproteins, VLDL ([3]; olive oil 15 ml kg^-1 orally, compound ip, mean ± SEM, N = 8, oil control 15.84 ± 1.53): 11.22 ± 1.22%; Lipoproteins, HDL ([3]; olive oil 15 ml kg^-1 orally, compound ip, mean ± SEM, N = 8, oil control 24.18 ± 2.15): 30.45 ± 2.87%; Lipoproteins, LDL ([3]; olive oil 15 ml kg^-1 orally, compound ip, mean ± SEM, N = 8, oil control 57.38 ± 2.25): 51.26 ± 2.49%; cholesterol ([3]; olive oil 15 ml kg^-1 orally, compound ip, mean ± SEM, N = 8, oil control 88.33 ± 2.96): 76.18 ± 3.02 mg/100 ml; triglycerides ([3]; olive oil 15 ml kg^-1 orally, compound ip, mean ± SEM, N = 8, oil control 213.66 ± 28.68): 123.48 ± 12.16 mg/100 ml; lipoproteic pattern altered due to oil administration (in words) [3]: restored
CC(C)(C)C(=O)O[C@H](CC(=O)[O-])C[N+](C)(C)C [l pivaloyl CAR]	618	60.4	48.1	38.3	35.1	25	15	–	–	–
CC(C)(C)C(=O)OC(CC(=O)[O-])C[N+](C)(C)C (racemic) [d,l pivaloyl CAR]	855	58.4	65.5	40.6	40.2	20	10	–	–	–
C[N+](C)(C)CC(CC(=O)[O-])OC(=O)C=Cc1ccc(Cl)cc1 (racemic) [d,l p-chlorocinnamoyl CAR]	935	25.1	22.2	22.3	20.4	25	10	–	–	–
COc1ccc(C=CC(=O)OC(CC(=O)[O-])C[N+](C)(C)C)cc1 (racemic) [d,l p-methoxycinnamoyl CAR]	440	22.2	31.5	36.1	22.2	–	–	70	56	antiarrhythmic activity (in words) [2]: markedly exhibited
C[N+](C)(C)C[C@@H](CC(=O)[O-])OC(=O)C=Cc1cccc(C(F)(F)F)c1 [l trifluoromethylcinnamoyl CAR]	540	32.7	60.5	40.1	39.2	–	–	–	–	change in vivo at 40 mg/kg [2, 8]: 60%; change in vivo at 40 mg/kg [2, 9]: 45%
C[N+](C)(C)CC(CC(=O)[O-])OC(=O)Cc1ccc2ccccc2c1 (racemic) [d,l naphtalene ACAR]	880	41.2	40.1	39.3	41.2	–	–	–	–	change in vivo at 75 mg/kg [2, 8]: 25%; change in vivo at 75 mg/kg [2, 9]: 10%
CCC(CC)C(=O)OC(CC(=O)[O-])C[N+](C)(C)C (racemic) [d,l diethyl ACAR]	1200	25.1	27.5	31.2	20.6	25	32	–	–	–
C[N+](C)(C)CC(CC(=O)[O-])OC(=O)CCC1CCCCC1 (racemic) [d,l cyclohexylpropionyl CAR]	955	45.3	25.5	12.5	22.4	–	–	70	55	antiarrhythmic activity (in words) [2]: markedly exhibited
C[N+](C)(C)CC(CC(=O)[O-])OC(=O)C1CCCCC1 (racemic) [d,l cyclohexyl CAR]	850	22.1	26.4	15.8	18.2	50	38	–	–	–
C[N+](C)(C)CC(CC(=O)[O-])OC(=O)C=Cc1cccc(Br)c1 (racemic) [d,l m-bromocinnamoyl CAR]	650	28.5	50.4	45.2	38.1	–	–	40	28	–
C[N+](C)(C)C[C@@H](CC(=O)[O-])OC(=O)CCBr [l 3-Br--propionyl CAR]	960	50.5	60.2	45.1	42.4	–	–	25	12	–
Cc1ccc(C=CC(=O)OC(CC(=O)[O-])C[N+](C)(C)C)cc1 (racemic) [d,l p-methylcinnamoyl CAR]	620	38.6	71.1	45.3	32.4	–	–	20	9	–
CCCC(CCC)C(=O)O[C@@H](CC(=O)[O-])C[N+](C)(C)C [d dipropyl ACAR]	1600	22.4	25.5	38.3	21.7	–	–	–	–	change in vivo at 40 mg/kg [2, 8]: 50%; change in vivo at 40 mg/kg [2, 9]: 30%
C=C[C@H]1C[N@@]2CC[C@H]1C[C@@H]2[C@@H](O)c1ccnc2ccc(OC)cc12 [Quinidine, reference compound]	–	72.5	191	57.4	51.2	–	–	–	–	change in vivo at 89 mg/kg [2, 8]: 50%; change in vivo at 89 mg/kg [2, 9]: 41.7%
